Reference: patent US10137171B2, “Methods of treatment using a pentapeptide derived from the C-Terminus of Glucagon-Like Peptide 1 (GLP-1)” (The General Hospital Corporation, priority 2011, dated 2018)
“Also recorded” adds a separate entry of the source. Where no end group is shown, it is not given here.

Assays:
diet-induced obese mice [1] = assay: Dual energy X-ray absorptiometry (DXA) of lean, fat and total body mass; type: in vivo, mouse
From the text: FIGS. 2A-D are bar graphs showing the results of determinations of lean, fat, and total body mass by dual X-ray absorptiometry (DXA) of mice receiving continuous infusions of the pentapeptide […] or control vehicle alone for 16 weeks. At the time of the study the mice were 39 weeks of age and on the very high fat diet for 33 weeks. 2A. Fat versus lean mass. The fat mass is 40% less in the pentapeptide infused compared to the control vehicle infused mice. *P<0.0008. […] 2B. Total body mass (lean+fat) differences in peptide infused versus vehicle control infused obese mice. *P<0.002. 2C. Fat mass expressed as the fraction of fat mass in peptide infused mice versus vehicle control infused obese mice. *P<0.0008. 2D. Fat mass expressed as the percentage of body weight, peptide-infused versus vehicle control-infused obese mice. *P<0.001. N=6 mice per group. Values are means+/−SEMs.
Mice were anesthetized with 0.02 ml of a 2% tribromoethanol solution per gram of body weight and scanned with a dual X-ray apparatus (Lunar Piximus, GE Medical Systems, Wauwatosa, Wis.). Total, fat, and lean body mass was quantitatively determined.

diet-induced obese mice [2] = assay: Metabolic parameters in closed metabolic chambers (TSE PhenoMaster/LabMaster); type: in vivo, mouse
From the text: FIGS. 4A-C show the results of metabolic measurements of body weights, energy expenditure (VO2), and physical activities of mice during three days of monitoring in TSE-Systems metabolic cages. Mice were 37 weeks old and fed the very high fat diet for 31 weeks at the time of the study. 4A. Line graph showing body weights during three-day monitoring. Vehicle N=2; GLP-1s N=3. # p<0.01; ## p<0.006; ## p<0.008; ## p<0.007. 4B. Bar graph and line graph showing total body oxygen consumption (VO2) measured during both light and dark cycles for the three days of monitoring. Upper panel; Total VO2. Lower panel: Daily time-course of VO2 during light and dark cycles averaged over the three days. Vehicle N=2; GLP-1s N=3. 4C. Bar graph and line graph showing physical activity of the mice during the three days of the metabolic studies. Upper panel: Total activities averaged for light and dark cycles. Lower panel: Time-dependent measurements of activities. Activities were measured for hourly intervals during the light cycle of six hours (13:00 to 18:00) and for two hour intervals during the dark cycle of 12 hours (18:00 to 6:00). […] Vehicle N=2; GLP-1s N=3. The findings support a model of increased basal energy expenditure in mice infused with GLP-1(32-36)amide versus mice infused with control vehicle, independent of endogenous energy expenditure due to physical activity. N=3 mice for pentapeptide infusion and N=2 mice for control vehicle infusion.
FIGS. 4D-G show the results of metabolic measurements of energy expenditure (VO2) of monitoring in TSE-Systems metabolic cages. Mice were 33-34 weeks old and fed the very high fat diet for […] at the time of the study. 4D and 4E. Line graph and bar graph showing total body oxygen consumption (VO2) measured during the light phase during two days. 4F and 4G. Line graph and bar graph showing lean body oxygen consumption (VO2) measured during the light phase during two days.
Mice were single-caged for three days acclimatization and then transferred to single-cage metabolic chambers in a PhenoMaster/LabMaster system (TSE-Systems, Inc., Chesterfield, Mo.) for measurements of oxygen consumption, CO2, physical activity, and food intake during light and dark cycles for a period of 72 hrs.

diet-induced obese mice [3] = assay: Fasting plasma glucose and insulin measurements; type: in vivo, mouse; settings: 16 h fast, after 12 weeks infusion, 29 weeks on VHFD
From the text: FIGS. 5A-B are a pair of bar graphs showing that GLP-1(32-36)amide attenuates the development of fasting hyperglycemia and hyperinsulinemia in high fat-fed mice. Mice fed the VHFD develop hyperglycemia, hyperinsulinemia, diabetes, and insulin resistance during weeks 15 to 29 of diet-induced obesity (21-35 weeks of age, respectively). A 12-week infusion of either control vehicle or pentapeptide started at 17 weeks on high-fat diet (23 weeks of age). FIG. 5A: Fasting plasma glucose levels *p<0.0004 vehicle vs. GLP-1(32-36)a. FIG. 5B: Fasting insulin levels *p<0.042 vehicle vs. GLP-1(32-36)a. The studies are in mice fed a VHFD for 15 weeks, two weeks before beginning the continuous infusions of either control vehicle or pentapeptide. Continuous infusions of vehicle or pentapeptide GLP-1(32-36)amide were give during weeks 17 to 29 of diet (23 to 35 weeks of age). Weeks denoted on the ordinate scales refers to weeks of age. N=6 mice per group. Values are means+/−SEMs.
Plasma obtained by tail nick from mice fasted for 16 hrs was assayed for glucose by using the one touch ultra-mini glucometer (Life Scan, Johnson and Johnson company) and for insulin with a rat/mouse Elisa kit (Crystal Chem, Downers Grove, Ill.).
Fasting immunoreactive insulin levels: whole blood samples were spun in a refrigerated microfuge at 14,000 rpm for 10 minutes and transferred to a clean tube. […]

[4] = system: insulin-resistant isolated mouse hepatocytes; assay: ROS formation assay (isolated primary hepatocytes); type: cell-based; settings: 30 mM glucose 24 h; peptide 10 pM, 100 pM and 100 nM (FIG. 9A)
Method: FIG. 9A is a bar graph showing suppression of the production of reactive oxygen species (ROS) by the pentapeptide GLP-1(32-36)amide in insulin-resistant isolated mouse hepatocytes. Hepatocytes were rendered insulin-resistant by their pre-incubation in 30 mM glucose. Primary hepatocytes from C57BL/6J mice were seeded at 2×10^5 cell per well in twelve-well plates and treated for 24 h with 30 mM glucose in the absence of presence of GLP-1(32-36)amide (10 pM, 100 pM and 100 nM). To measure ROS levels cells were washed twice in HBSS (Hanks' Balance Salt Solution) and incubated with 10 uM 5-(and 6)-carboxy-2′,7′-dichlorohydro-fluorescein diacetate (CM-H2DCFDA) (Molecular Probes) for 45 minutes. The media were removed and cells were lysed. ROS was measured in the cell lysates using a spectrofluorometer (485 nm/535 nm). Data were normalized to values obtained from untreated controls. The data shown are the means of two independent hepatocyte isolations+/−SEMs.
Primary hepatocytes from diet-induced obese (DIO) and C57BL/6J mice were seeded in 12-well plates at a density of 2×10^5/well for 24 h. C57BL/6J hepatocytes were treated with 30 mM glucose in the absence or presence of GLP-1(32-36)amide for 20 to 24 h and compared to DIO hepatocytes treated with GLP-1(32-36)amide. […] ROS was measured in the cell lysates using a spectrofluorometer (485 nm/535 nm). […]

[5] = after 16 weeks infusion, VHFD mice (FIG. 2A)

## LVKGRamide (LVKGR-NH2) [GLP-1(32-36)amide, pentapeptide derived from the C-terminus of the glucoincretin hormone GLP-1]
diet-induced obese mice [1]; after 16 weeks infusion (FIG. 2C)
  relative (%) fat mass compared to vehicle-treated mice (DXA): decreased
diet-induced obese mice [1]; [5]
  fat mass reduction compared to vehicle control (DXA): 40%
  lean mass change compared to vehicle control (DXA): no significant difference
diet-induced obese mice [1]; after 16 weeks infusion, VHFD mice (FIG. 2A), listed as pentapeptide
  lean mass change compared to vehicle control (DXA): no significant changes; also recorded: no significant difference
diet-induced obese mice [1]; after 16 weeks infusion, vs vehicle (FIG. 2B)
  total body mass (body weight) (DXA): decreased
diet-induced obese mice [1]; after 16 weeks infusion, vs vehicle (FIG. 2D)
  ratio of fat mass to body weight (DXA): decreased
diet-induced obese mice [2]; VHFD 31 weeks, infusion twelve weeks, vehicle 52 (FIG. 4A)
  body weight during three-day metabolic chamber monitoring: 38 grams
diet-induced obese mice [2]; indirect calorimetric studies
  cumulative food consumption vs vehicle: lower
diet-induced obese mice [2]; light and dark cycles (FIG. 4C)
  physical activity vs vehicle: not significantly different; also recorded: not associated with changes; also recorded: no significant differences
diet-induced obese mice [2]; light cycle and dark cycle (FIG. 4B)
  whole body oxygen consumption (Total VO2) vs vehicle: significantly higher
diet-induced obese mice [2]; light cycle and dark cycle (FIG. 4D, 4E)
  resting oxygen consumption vs vehicle: increase
diet-induced obese mice [3]; vehicle 8.8 (FIG. 5A)
  fasting plasma glucose: 5.5 mM
diet-induced obese mice [3]; vehicle 300 (FIG. 5B)
  fasting plasma insulin: 250 pM
[4]
  ROS levels: prevented the rise in ROS levels; also recorded: suppression
